The values that follow are results of earlier work, collected in US10548855B2, “Memantine combinations and use” (CHASE PHARMACEUTICALS CORPORATION, priority 2016, dated 2020).

The structures appear in SMILES notation.

This series deals with mice. Conditions: water maze, 2 mg/kg.

With `CC12CC3CC(C)(C1)CC(N)(C3)C2` [memantine, 3,5-dimethyladamantan-1-amine], the “effect on scopolamine-induced learning deficits” value is “reverses scopolamine-induced learning deficits”.
